Experimental data taken from a melting point compilation (Tetko et al.; mined from patent text by program, amines drawn as free bases though some values may be those of a salt).
Residues, ends and D or L forms follow the SMILES beside them. *: point of attachment. NHPhenethyl = c1ccc(CCN*)cc1

| SMILES | melting point [°C] |
| --- | --- |
| Cc1cc(Cl)ccc1OCC(=O)N1Cc2ccc(C(=O)c3ccc(-c4ccccc4)cc3)n2Cc2ccccc21 | 102 to 105 |
| O=C(O)c1ccccc1C=Cc1ccc(-c2cc3ccc4ccccc4c3o2)cc1 | 210 to 211 |
| CNc1cc(Br)nc(S(=O)(=O)c2ccc(N)cc2)c1 | 158 to 160 |
| CCCCCCCCCCCCOCC(COCCCCCCCCCCCC)(CC(=O)O)CC(=O)O | 80 to 82 |
| Cc1ccc(NC2=C(Cl)C(=O)c3ccccc3C2=O)nc1 | 260 to 261 |
| C1CNCCNCCNCCNCCN1 | 92 to 103 |
| CCCCNC(=O)C1CCCCC1(O)C(=O)c1ccc(OC)cc1 (stereo unspecified) | 94 to 95 |
| O=C(Nc1ccc(OCCCN2CCc3ccccc3C2)cc1)c1cccc2c(=O)c3ccccc3[nH]c12 | 182 |
| CS(=O)(=O)c1cnc(NC(=O)c2cccc(O)c2)s1 | 271 to 272 |
| Cc1cc2c(cc1C(=O)Cc1ccccc1)CCC2 | 126 to 127 |
| CC1(C)CC(C)(c2ccc(Oc3cccc([N+](=O)[O-])c3)cc2)c2cc(Oc3cccc([N+](=O)[O-])c3)ccc21 (stereo unspecified) | 90 to 92 |
| Cc1nc(C(C)(C)C)c[nH]1 | 155 to 156 |
| CC(C)(N)[C@H]1CCN(c2c(F)cc3c(=O)c(C(=O)O)cn(C4CC4)c3c2F)C1 | 261 to 264 |
| O=C1c2cc3c(cc2CCC1(Br)Br)OCC3 | 138 to 142 |
| NS(=O)(=O)c1ccccc1Cc1nnc(S)s1 | 173 to 197 |
| CNCC1(C)Cc2c(C)c(N3CCN(c4ccc(OC)cc4)CC3)c(C)c(C)c2O1 (stereo unspecified) | 107 to 113 |
| COC(=O)c1cc2c(C)ccc(C)c2n1OC(C)=O | 87 to 88 |
| CCCCCCCCCCCCNC(=O)CSCc1cc(C(C)(C)C)c(O)c(C(C)(C)C)c1 | 43 to 46 |
| CCOc1ccc2[nH]c(C)cc2c1 | 76 to 77 |
| O=C1c2ccccc2CN1CCCCSc1ccncc1 | 57 to 58 |
| COC(=O)C(Oc1ccc(Cl)cc1)c1ccc(Sc2ccc(Cl)cc2)cc1 (stereo unspecified) | 90.5 to 94.5 |
| O=C1c2ccccc2S(=O)(=O)N1CF | 96 to 98 |
| Cc1cc(NCC(C)C)c(N)c2nnnn12 | 159 to 162 |
| CC1CC(NC(=O)C(F)(F)F)=NN1c1ccc(C(=O)C(F)(F)F)cc1 (stereo unspecified) | 189 to 190 |
| CS(=O)(=O)c1ccc(C(CC2CCCC2)C(=O)Nc2cnccn2)cc1[N+](=O)[O-] (stereo unspecified) | 104 to 108 |
| CCC(=O)N[C@H]1CCc2c(ccc(OC)c2OC)C1 | 149 to 151 |

| SMILES | melting point [°C] |
| --- | --- |
| Nc1cc(C(=O)O)cc(S(N)(=O)=O)c1Nc1ccccc1 | 251 |
| COCCCCCCCCCCCc1nnn[nH]1 | 66.3 to 68.3 |
| Cc1oc2c(C)c(C)c(NCc3ccc(F)cc3)c(C)c2c1-c1ccc(C(C)C)cc1 | 95 to 97 |
| CCC(=O)c1cc(C2(c3cccc(O)c3)N=C(N)N(C)C2=O)cn1CC (stereo unspecified) | 101 |
| C#Cc1cccc(C(=O)OCC)c1 | 36 to 38 |
| CC(COC1CCCCO1)C1CCC2C3CC=C4CC(O)CC(O)C4(C)C3CCC12C (stereo unspecified) | 138 to 141 |
| CCOC(=O)C(=O)c1ccc2c(c1)CCO2 | 139 to 141 |
| CS(=O)(=O)c1ccc(-c2cc(C(=O)CCCO)nn2-c2ccccc2)cc1 | 143 to 145 |
| CN(C(=O)Cc1ccc2oc(=O)[nH]c2c1)[C@H](CN1CC[C@H](O)C1)c1ccccc1 | 207 to 208 |
| CCOc1cc2cc(OC)c(OC)cc2c(Cc2ccc(OC)c(OC)c2)n1 | 110 to 112 |
| [N-]=[N+]=NCCc1ccc(C(=O)O)cc1 | 130 to 131 |
| COc1cccc(C23CCN(C)CC2Cc2c([nH]c(C(=O)N4CCCC4)c2C)C3)c1 (stereo unspecified) | 171 to 173 |
| O=C(O)C(=O)CC(=O)c1cccn1Cc1cc(F)ccc1F | 142 to 146 |
| CSC(=S)N1CCN(Cc2cc(OC(C)=O)c(OC(C)=O)c(OC(C)=O)c2)CC1 | 141 to 143 |
| COc1ccc(N2C(=O)[C@H](O)[C@@H]2CC2CCCCC2)cc1 | 152 to 155 |
| CON1CCC2(CC1)C(O)=C(c1c(C)cc(C)cc1C)C(=O)N2CC1CC1 | 223 to 225 |
| CCOC(=O)C(Oc1cc(-c2ccccc2)on1)C(=O)OCC | 62 to 64 |
| CC(C)c1nc(Cl)c2c(-c3ccc([N+](=O)[O-])o3)nn(C)c2n1 | 112 |
| Cc1cccc(-c2nnnn2C)c1S(N)(=O)=O | 140 to 161 |
| CCCCN(CC(O)C(Cc1ccccc1)NC(=O)C(C)CS(C)(=O)=O)S(=O)(=O)c1ccc(OC)cc1 (stereo unspecified) | 87 to 92 |
| CC(C)(C)C(=O)SC[C@H](NC(=O)C(C)(C)SC(=O)C(C)(C)C)C(=O)O | 140 to 141 |
| CC(=O)NC[C@H]1CN(c2ccc3c(c2)CS(=O)(=O)CC3)C(=O)O1 | 177 to 179 |
| O=S1(=O)CC=C(CBr)C1 | 76 to 84 |
| CC(C)n1c(C=O)c(-c2ccc(F)cc2)c(-c2ccccc2)c1C(=O)Nc1cccc(C(=O)N(C)C)c1 | 202 to 203 |
| O=C(O)CCN1CCN(c2ccc(F)cc2)CC1 | 178 to 180 |
| Cc1ccccc1CC(=NC#N)NC(NC(=O)Cc1ccc2ncccc2c1)C(C)(C)C (stereo unspecified) | 172 to 173 |

| SMILES | melting point [°C] |
| --- | --- |
| CC(=O)OC1CSC(Oc2cccnc2-c2ccco2)C(OC(C)=O)C1OC(C)=O (stereo unspecified) | 160 |
| CN(C)C=C(C(=O)OC(C)(C)C)C(=O)c1ccccc1Cl | 97 to 99 |
| CC1(c2ccccc2Cl)C(=O)Nc2ccc(Cl)cc21 (stereo unspecified) | 185 |
| Cc1ccc(C(O)CN2CCNC2=S)cc1 (stereo unspecified) | 123 |
| CCOC(=O)CCc1cccc(-c2c(CC(=O)Nc3ccc(F)cc3C(F)(F)F)c(=O)oc3cc(Cl)c(C)cc23)c1 | 121 to 123 |
| Cc1oc(-c2ccco2)nc1COc1ccc(COc2nn(Cc3ccccc3)cc2C=O)cc1Cl | 158 to 159 |
| O=C(O)CC(C(=O)O)C(=O)O | 157 to 159 |
| N#Cc1ccccc1N1CCCN(Cc2cc3cc(F)ccc3[nH]2)CC1 | 194 to 198 |
| COc1ccc(CC2NC(=O)NC2=O)cc1OCc1ccccc1 (racemic) | 155 to 157 |
| CCOP(=O)(CCCCCCOc1ccc(C(=O)O)cc1)OCC | 215 to 216 |
| CCOC(=O)c1c(OC(=O)CCl)c2ccccc2c2nc3ccccc3nc12 | 208 to 209 |
| Nc1ccccc1NC(=O)CCCCCCNC(=O)c1cn2c3c(cccc13)CCC2 | 144 to 145 |
| Nc1ccc(CNc2ccccn2)cc1O | 136 to 138 |
| CC(=O)OC(C(=O)N(C)c1ccc(N(C)C(=O)C(OC(C)=O)c2ccccc2)cc1)c1ccccc1 (stereo unspecified) | 180 to 183 |
| NC(=O)CNC(=O)c1cccc(-c2cccc3cc(Cc4cc(F)cc(C(F)(F)F)c4)sc23)c1 | 169 to 170 |
| CCCCN(CCCC)c1cc(OC)c(C=O)c(OC)c1 | 55 to 56 |
| NCCOCC(O)c1ccc2sccc2c1 (stereo unspecified) | 87 to 90.5 |
| O=C(O)CCCc1ccc(-c2ccccc2Cl)cc1 | 60 to 61 |
| O=C1NCCN1c1ccc(S(=O)(=O)Nc2ccc3c(c2)CCC3)cc1 | 228 to 230 |
| CC(C)c1nc(CN(C)C(=O)N[C@H](C(=O)N[C@@H](Cc2ccccc2)C[C@H](O)[C@H](Cc2ccccc2)NC(=O)OCc2cnco2)C(C)C)cs1 | 59 to 61 |
| NNC1=Nc2ccc(I)cc2C(c2ccccc2F)=NC1 | 179 to 181 |
| CCCc1c(OCCCOc2ccc3c(=O)cc(C(=O)O)oc3c2CCC)ccc(C(C)=O)c1O | 173 to 174 |
| CC1Cc2cc(S(=O)(=O)n3cc(-c4ccccc4)[nH]c3=O)ccc2N1C(=O)CCl (stereo unspecified) | 157 to 159 |
| COCCNCCOc1ccc(NC(=O)c2ccccc2NS(C)(=O)=O)cc1 | 164 to 165 |
| CCOC(=O)c1c(O)c2cccnc2n(C)c1=O | 158 to 160 |
| CC[C@H](C)[C@H](NC(=O)[C@@H](N)CS)C(=O)NCCc1ccccc1 (H-Cys-Ile-NHPhenethyl) | 156 to 159 |

| SMILES | melting point [°C] |
| --- | --- |
| O=C(O)C1=Cc2cc(Cl)ccc2N(Cc2ccc(C(F)(F)F)cc2)C1C(F)(F)F (stereo unspecified) | 229 to 231 |
| Cc1cc2c(cc1C1=NNC(=O)CC1C)NC(=O)C(C)O2 (stereo unspecified) | 190 to 191 |
| CC1=CC2c3cccc4[nH]c(SC(C)C)c(c34)CC2N(C)C1 (stereo unspecified) | 145 to 147 |
| CCCSc1nc(C)c(CO)n1-c1ccccc1Cl | 98 to 101 |
| O=C(O)c1cccc(CC(Cn2ccnc2)c2ccc(F)cc2)c1 (stereo unspecified) | 125 to 130 |
| COc1ccc(C2=NN(C3CCN(C(=O)[C@H](C)NC(=O)NC(C)(C)C)CC3)C(=O)[C@@H]3CC=CC[C@H]23)cc1OC | 153 to 154 |
| COc1cc(COc2nn(Cc3ccccc3)cc2CO)ccc1OCc1nc(-c2ccco2)oc1C | 104 to 105 |
| O=S(Cc1noc(Cc2ccccc2)n1)c1ccc(CCNC[C@H](O)COc2ccc(O)cc2)cc1 (stereo partly specified) | 51 to 57 |
| O=C1COc2ccc(C#Cc3ccccn3)cc2N1 | 210 |
| Nc1nc(NCCO)nc(N2CCOCC2)n1 | 159 to 161 |
| CC(=O)Oc1c(C)c(C)c2c(c1C)C(=O)CC(C)(COc1ccc(N)cc1)O2 (stereo unspecified) | 177 to 178 |
| CN(Cc1cc(C(F)(F)F)cc(C(F)(F)F)c1)C(=O)c1cnc2ccccc2c1-c1ccccc1 | 96 to 97 |
| C=CCc1c(O)ccc2c(C)c(CC(=O)OC)c(=O)oc12 | 160 to 162 |
| O=C(O)c1ccccc1CF | 178 to 181 |
| COC(=O)c1cc(Cl)c2cccc(OC)c2n1 | 139 to 141 |
| O=c1c2ccccc2nc(CCl)n1-c1ccc(Cl)cc1 | 234 to 235 |
| CCc1nc(NC(C)=O)nc(NC(C)c2cccs2)n1 (stereo unspecified) | 153 |
| COc1ccc(CSCC(NC(=O)c2ccccc2)C(=O)NC(C)(C)c2ccccc2)cc1 (stereo unspecified) | 189 |
| N#Cc1cnn(-c2nc(Cl)c(C(F)(F)F)cc2Cl)c1N | 168 to 171 |
| CC(CCc1nnn[nH]1)Cc1ccc(OCc2ccc3ccccc3n2)cc1 (stereo unspecified) | 75 to 77 |
| COc1cc2c(c([N+](=O)[O-])c1O)C(=O)c1ccccc1C2=O | 296 to 297 |
| COCOc1ccc(-c2ccc(OCOC)c(F)c2)cc1F | 76.3 to 77.3 |
| Cc1ccc2cc(NC(=O)c3cccc(SCc4cnccn4)c3)ccc2n1 | 102 to 105 |
